# Patent publication US4110327A, “2,3 Diketo-piperazinocarbonylamino alkanoic acids and derivatives” (Toyama Chemical Co., Ltd., priority 1974, dated 1978)
# Assays:
# Assay type in all cases: cell-based
# Escherichia coli NIHJ = experiment: MIC against standard strain, plate method; conditions: unit assumed
# Summary of the method: (§1)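 Plate-method MIC. Medium: heart infusion agar, pH 7.4. Inoculum: 10^4 cells per plate (10^6 cells/ml).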
# Klebsiella pneumoniae [1] = experiment: MIC against standard strain, plate method; conditions: unit assumed
# Summary of the method: as §1
# Proteus vulgaris 3027 = experiment: MIC against standard strain, plate method; conditions: Proteus vulgaris 3027, standard strain; unit assumed
# Summary of the method: as §1
# [2] = system: Pseudomonas aeruginosa I.F.O.; experiment: MIC against standard strain, plate method; conditions: unit assumed
# Summary of the method: as §1
# [3] = system: Staphylococcus aureus 209p; experiment: MIC against standard strain, plate method; conditions: unit assumed
# Summary of the method: as §1
# Staphylococcus aureus = experiment: MIC against clinical isolates; conditions: unit assumed
# Escherichia coli = experiment: MIC against clinical isolates; conditions: unit assumed
# Pseudomonas aeruginosa = experiment: MIC against clinical isolates; conditions: unit assumed
# Klebsiella pneumoniae [4] = experiment: MIC against clinical isolates; conditions: unit assumed
# Proteus mirabilis = experiment: MIC against clinical isolates; conditions: clinical isolate, unit assumed
# Proteus morganii = experiment: MIC against clinical isolates; conditions: clinical isolate, unit assumed
# Proteus vulgaris = experiment: MIC against clinical isolates; conditions: clinical isolate, unit assumed
# Proteus rettgeri = experiment: MIC against clinical isolates; conditions: clinical isolate, unit assumed
compound,measurement,setting,value
"CN1CCN(C(=O)NC(C(=O)NC2C(=O)N3C(C(=O)O)=C(CSc4nnnn4C)CSC23)c2ccccc2)C(=O)C1=O (single isomer, unassigned) [compound 63]",MIC,Escherichia coli NIHJ,< 0.79 µg/mL
same,MIC,Klebsiella pneumoniae [1],< 0.79 µg/mL
same,MIC,Proteus vulgaris 3027,1.57 µg/mL
same,MIC,[2],25 µg/mL
same,MIC,[3],< 0.79 µg/mL
same,MIC,Staphylococcus aureus; clinical isolate F-1,3.13 µg/mL
same,MIC,Staphylococcus aureus; clinical isolate F-2,0.78 µg/mL
same,MIC,Staphylococcus aureus; clinical isolate F-3,1.56 µg/mL
same,MIC,Staphylococcus aureus; clinical isolate F-4,1.56 µg/mL
same,MIC,Staphylococcus aureus; clinical isolate F-5,12.5 µg/mL
same,MIC,Staphylococcus aureus; clinical isolate MS 8588,1.56 µg/mL
same,MIC,Staphylococcus aureus; clinical isolate MS 8596,1.56 µg/mL
same,MIC,Staphylococcus aureus; clinical isolate MS 8619,0.78 µg/mL
same,MIC,Staphylococcus aureus; clinical isolate MS 8684,1.56 µg/mL
same,MIC,Staphylococcus aureus; clinical isolate MS 8713,1.56 µg/mL
same,MIC,Escherichia coli; clinical isolate GN 3435,3.13 µg/mL
same,MIC,Escherichia coli; clinical isolate GN 3452,12.5 µg/mL
same,MIC,Escherichia coli; clinical isolate GN 3465,25 µg/mL
same,MIC,Escherichia coli; clinical isolate GN 3481,3.13 µg/mL
same,MIC,Escherichia coli; clinical isolate GN 3611,100 µg/mL
same,MIC,Escherichia coli; clinical isolate K-1,3.13 µg/mL
same,MIC,Escherichia coli; clinical isolate K-2,6.25 µg/mL
same,MIC,Escherichia coli; clinical isolate K-3,50 µg/mL
same,MIC,Escherichia coli; clinical isolate K-4,6.25 µg/mL
same,MIC,Pseudomonas aeruginosa; clinical isolate GN 82,50 µg/mL
same,MIC,Pseudomonas aeruginosa; clinical isolate GN 163,25 µg/mL
same,MIC,Pseudomonas aeruginosa; clinical isolate GN 221,25 µg/mL
same,MIC,Pseudomonas aeruginosa; clinical isolate GN 244,50 µg/mL
same,MIC,Pseudomonas aeruginosa; clinical isolate GN 376,50 µg/mL
same,MIC,Pseudomonas aeruginosa; clinical isolate GN 383,25 µg/mL
same,MIC,Pseudomonas aeruginosa; clinical isolate GN 1035,100 µg/mL
same,MIC,Pseudomonas aeruginosa; clinical isolate GN 1091,50 µg/mL
same,MIC,Pseudomonas aeruginosa; clinical isolate GN 2565,50 µg/mL
same,MIC,Pseudomonas aeruginosa; clinical isolate GN 2987,25 µg/mL
same,MIC,Pseudomonas aeruginosa; clinical isolate S-1,100 µg/mL
same,MIC,Pseudomonas aeruginosa; clinical isolate S-2,100 µg/mL
same,MIC,Pseudomonas aeruginosa; clinical isolate S-3,100 µg/mL
same,MIC,Pseudomonas aeruginosa; clinical isolate S-4,100 µg/mL
same,MIC,Klebsiella pneumoniae [4]; clinical isolate GN 917,3.13 µg/mL
same,MIC,Klebsiella pneumoniae [4]; clinical isolate GN 4081,6.25 µg/mL
same,MIC,Klebsiella pneumoniae [4]; clinical isolate GN 4117,6.25 µg/mL
same,MIC,Proteus mirabilis,3.13 µg/mL
same,MIC,Proteus morganii,3.13 µg/mL
same,MIC,Proteus vulgaris,1.56 µg/mL
same,MIC,Proteus rettgeri,3.13 µg/mL
CCN1CCN(C(=O)NC(C(=O)NC2C(=O)N3C(C(=O)O)=C(COC(C)=O)CSC23)c2ccccc2)C(=O)C1=O (stereo not drawn) [compound 61],MIC,Escherichia coli NIHJ,< 0.79 µg/mL
same,MIC,Klebsiella pneumoniae [1],3.13 µg/mL
same,MIC,Proteus vulgaris 3027,3.13 µg/mL
same,MIC,[2],25 µg/mL
same,MIC,[3],< 0.79 µg/mL
same,MIC,Staphylococcus aureus; clinical isolate F-1,3.13 µg/mL
same,MIC,Staphylococcus aureus; clinical isolate F-2,1.56 µg/mL
same,MIC,Staphylococcus aureus; clinical isolate F-3,1.56 µg/mL
same,MIC,Staphylococcus aureus; clinical isolate F-4,3.13 µg/mL
same,MIC,Staphylococcus aureus; clinical isolate F-5,50 µg/mL
same,MIC,Staphylococcus aureus; clinical isolate MS 8588,1.56 µg/mL
same,MIC,Staphylococcus aureus; clinical isolate MS 8596,1.56 µg/mL
same,MIC,Staphylococcus aureus; clinical isolate MS 8619,1.56 µg/mL
same,MIC,Staphylococcus aureus; clinical isolate MS 8684,1.56 µg/mL
same,MIC,Staphylococcus aureus; clinical isolate MS 8713,1.56 µg/mL
same,MIC,Escherichia coli; clinical isolate GN 3435,3.13 µg/mL
same,MIC,Escherichia coli; clinical isolate GN 3452,6.25 µg/mL
same,MIC,Escherichia coli; clinical isolate GN 3465,50 µg/mL
same,MIC,Escherichia coli; clinical isolate GN 3481,3.13 µg/mL
same,MIC,Escherichia coli; clinical isolate GN 3611,200 µg/mL
same,MIC,Escherichia coli; clinical isolate K-1,3.13 µg/mL
same,MIC,Escherichia coli; clinical isolate K-2,6.25 µg/mL
same,MIC,Escherichia coli; clinical isolate K-3,100 µg/mL
same,MIC,Escherichia coli; clinical isolate K-4,6.25 µg/mL
same,MIC,Pseudomonas aeruginosa; clinical isolate GN 82,25 µg/mL
same,MIC,Pseudomonas aeruginosa; clinical isolate GN 163,25 µg/mL
same,MIC,Pseudomonas aeruginosa; clinical isolate GN 221,6.25 µg/mL
same,MIC,Pseudomonas aeruginosa; clinical isolate GN 244,25 µg/mL
same,MIC,Pseudomonas aeruginosa; clinical isolate GN 376,12.5 µg/mL
same,MIC,Pseudomonas aeruginosa; clinical isolate GN 383,12.5 µg/mL
same,MIC,Pseudomonas aeruginosa; clinical isolate GN 1035,100 µg/mL
same,MIC,Pseudomonas aeruginosa; clinical isolate GN 1091,25 µg/mL
same,MIC,Pseudomonas aeruginosa; clinical isolate GN 2565,50 µg/mL
same,MIC,Pseudomonas aeruginosa; clinical isolate GN 2987,25 µg/mL
same,MIC,Pseudomonas aeruginosa; clinical isolate S-1,50 µg/mL
same,MIC,Pseudomonas aeruginosa; clinical isolate S-2,50 µg/mL
same,MIC,Pseudomonas aeruginosa; clinical isolate S-3,50 µg/mL
same,MIC,Pseudomonas aeruginosa; clinical isolate S-4,50 µg/mL
same,MIC,Klebsiella pneumoniae [4]; clinical isolate GN 917,6.25 µg/mL
same,MIC,Klebsiella pneumoniae [4]; clinical isolate GN 4081,12.5 µg/mL
same,MIC,Klebsiella pneumoniae [4]; clinical isolate GN 4117,12.5 µg/mL
same,MIC,Proteus mirabilis,1.56 µg/mL
same,MIC,Proteus morganii,1.56 µg/mL
same,MIC,Proteus vulgaris,0.8 µg/mL
same,MIC,Proteus rettgeri,3.13 µg/mL
